Assay results from patent publication US5382596A, “Substituted 2-aminotetralins” (priority 1993, dated 1995).
Like-named read-outs stand apart in the source and are kept apart here.

Assays:
[1] = target: Dopamine D1 receptor (Bos taurus, UniProt Q95136); assay: biochemical; assay type: binding, bovine
Description: (§1) Membranes were prepared using a Brinkmann Polytron and collected by centrifugation. Membrane sources were bovine caudate (D2,D1) or rat cortex (α2). The membranes were washed, resuspended, and incubated at 37° C. for 30 min. in either the presence (rat cortex) of 1 μ/ml adenosine deaminase or absence (bovine caudate) of 0.1 μ/ml adenosine deaminase. Membranes were centrifuged, washed once and frozen at -70° C. until used. Immediately before use, the membranes were thawed, washed once, and resuspended to a final concentration of 0.5-2 mg/ml. Assays were initiated by addition of membranes. For D2 and D1 assays, the radioligands and conditions used were ^3 H-Spiperone (RT, 75 min.) and ^3 H-SCH23390 (37° C., 15 min.), respectively. For α2 assays, ^3 H-PAC (RT, 30 min.) was used Assays were terminated by filtration using a Brandel cell harvester over Whatman GF/B filters that had been pretreated with 0.1% polyethylenimine. […]

[2] = target: Dopamine D2 receptor (Bos taurus, UniProt P20288); assay: biochemical; assay type: binding, bovine
Chain of Dopamine D2 receptor (P20288 whole entry): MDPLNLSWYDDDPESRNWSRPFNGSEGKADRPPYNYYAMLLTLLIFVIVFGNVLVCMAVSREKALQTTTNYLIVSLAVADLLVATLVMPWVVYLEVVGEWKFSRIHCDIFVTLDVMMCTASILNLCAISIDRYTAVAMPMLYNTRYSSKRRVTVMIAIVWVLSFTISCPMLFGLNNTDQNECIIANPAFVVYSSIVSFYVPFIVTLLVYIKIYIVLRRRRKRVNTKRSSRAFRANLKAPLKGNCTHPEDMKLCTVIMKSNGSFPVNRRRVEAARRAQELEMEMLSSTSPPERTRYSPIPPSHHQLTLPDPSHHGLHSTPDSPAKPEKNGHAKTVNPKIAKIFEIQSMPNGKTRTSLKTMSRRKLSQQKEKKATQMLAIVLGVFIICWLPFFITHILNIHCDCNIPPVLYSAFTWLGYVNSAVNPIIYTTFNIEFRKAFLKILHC
Description: as §1

[3] = target: dopamine D2 receptor (Mus musculus, UniProt P61168); assay: biochemical; assay type: biochemical
Chain of dopamine D2 receptor (P61168 whole entry): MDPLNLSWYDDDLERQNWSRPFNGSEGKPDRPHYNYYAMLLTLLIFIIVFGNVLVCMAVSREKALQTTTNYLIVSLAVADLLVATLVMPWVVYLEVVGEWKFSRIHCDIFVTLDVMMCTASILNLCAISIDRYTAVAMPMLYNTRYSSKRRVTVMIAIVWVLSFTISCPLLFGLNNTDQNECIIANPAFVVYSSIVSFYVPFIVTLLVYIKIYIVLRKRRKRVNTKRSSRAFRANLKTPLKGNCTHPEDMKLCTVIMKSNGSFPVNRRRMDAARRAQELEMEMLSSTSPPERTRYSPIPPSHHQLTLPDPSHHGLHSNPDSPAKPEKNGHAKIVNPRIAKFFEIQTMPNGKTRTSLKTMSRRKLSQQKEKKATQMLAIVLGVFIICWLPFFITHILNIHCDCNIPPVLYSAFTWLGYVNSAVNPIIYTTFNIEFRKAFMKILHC
Description: Vasa deferentia from male BALB/C mice weighing approximately 30 g were removed and placed in isolated organ baths containing magnesium-free modified Krebs-Henseleit solution which was gassed with 95% O2 and 5% CO2 and maintained at 37° C. Tissues were set up under resting tension of 0.5 g and stimulated electrically at 60 volts, 0.1 Hz and 1 msec duration to produce a series of twitch responses. Tissues were pretreated with propranolol (1 μM) to block β-adrenoceptors, idazoxan (3 μM) to block α2 -adrenoceptors receptors, and ascorbic acid (100 μM) for 60 min before the addition of test compound.

[4] = target: adrenergic α2 receptor (Rattus norvegicus, UniProt P22909); assay: Adrenergic α2 in vitro functional test (rat vas deferens, inhibition of twitch); assay type: biochemical
Description: (§2) Vasa deferentia from male Sprague-Dawley rats weighing between 150-250 g were removed and placed in isolated organ baths containing Krebs-Henseleitsolution under a resting tension of 1 g. All other set up conditions were identical to those used for the mouse was deferens. Tissues were pretreated with propranolol (1 μM), ascorbic acid (100 μM) and the α1 -adrenergic antagonist prazosin (0.3 or 1 μM) for 60 min before the addition of test compound.

[5] = system: denervated supersensitive postsynaptic dopamine receptors; assay: In vivo functional test: contralateral circling in rats with unilateral 6-hydroxydopamine lesions of the substantia nigra; set-up: species or system rat; conditions: contralateral circling, rats, unilateral 6-hydroxydopamine lesion
Description: Dopamine agonists produce contralateral circling behavior in rats in which unilateral lesions of the substantial nigra are made by prior injection of 6-hydroxydopamine. The circling is thought to be mediated by stimulation of denervated supersensitive postsynaptic dopamine receptors (Marshall and Ungerstedt, 1977, Eur. J. Pharmacol., 41:361-367).

[6] = target: T1, adrenergic α2 receptor (Rattus norvegicus, UniProt P22909); assay: Adrenergic α2 in vitro functional test (rat vas deferens, inhibition of twitch); assay type: biochemical; remark: listed apart in the source
T1 sequence (P22909 1-465): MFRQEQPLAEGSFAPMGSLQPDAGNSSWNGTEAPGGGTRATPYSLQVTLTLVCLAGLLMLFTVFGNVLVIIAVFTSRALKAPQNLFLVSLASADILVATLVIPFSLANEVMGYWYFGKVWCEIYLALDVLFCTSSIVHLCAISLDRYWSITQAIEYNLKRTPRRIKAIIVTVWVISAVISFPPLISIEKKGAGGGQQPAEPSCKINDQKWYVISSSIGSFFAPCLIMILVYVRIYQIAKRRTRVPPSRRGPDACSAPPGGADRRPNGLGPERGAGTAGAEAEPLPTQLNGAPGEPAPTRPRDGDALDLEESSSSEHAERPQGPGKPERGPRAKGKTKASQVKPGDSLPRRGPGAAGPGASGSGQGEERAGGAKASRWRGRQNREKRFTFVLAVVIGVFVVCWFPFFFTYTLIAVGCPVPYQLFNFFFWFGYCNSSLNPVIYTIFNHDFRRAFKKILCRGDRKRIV
Description: as §2

[7] = bovine caudate membranes, 3H-SCH23390, 37° C., 15 min, read-out: D1 K1
[8] = bovine caudate membranes, 3H-Spiperone, RT, 75 min, read-out: D2 K1
[9] = concentration that produces 50% of the maximal inhibition of twitch, mouse vas deferens, read-out: D2 A50
[10] = concentration that produces 50% of the maximal inhibition of twitch, rat vas deferens, read-out: a2 A50

Chain of Dopamine D1 receptor (Q95136 whole entry): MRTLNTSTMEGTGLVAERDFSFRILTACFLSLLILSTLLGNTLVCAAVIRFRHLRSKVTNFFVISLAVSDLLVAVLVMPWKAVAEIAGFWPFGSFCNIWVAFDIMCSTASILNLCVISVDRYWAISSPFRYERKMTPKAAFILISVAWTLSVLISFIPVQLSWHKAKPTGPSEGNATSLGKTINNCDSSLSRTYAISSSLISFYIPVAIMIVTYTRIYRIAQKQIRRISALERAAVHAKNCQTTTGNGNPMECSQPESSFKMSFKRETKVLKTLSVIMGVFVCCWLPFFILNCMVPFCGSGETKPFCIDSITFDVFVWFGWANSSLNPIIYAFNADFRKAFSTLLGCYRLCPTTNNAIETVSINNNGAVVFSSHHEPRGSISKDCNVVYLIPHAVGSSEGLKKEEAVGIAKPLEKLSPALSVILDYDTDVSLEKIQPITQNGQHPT

EC50 [6, 10] [nM] | SMILES | Ki [1, 7] [nM] | Ki [2, 8] [nM] | EC50 [3, 9] [nM] | EC50 [4] [nM] | ED50 [5] [µmol/kg] | Selectivity Ratio (D1 K1/D2 K1) [2] | Specificity Ratio (a2 A50/D2 A50) [3] | Ki [1] [nM] | Ki [2] [nM] | EC50 [3] [nM] | EC50 [6] [nM]
 | CCCN(CCOC)[C@H]1CCc2c(ccc(O)c2O)C1 [Example 4] | 7080 | 363 | 0.603 | 42.7 | 0.006 |  |  |  |  |  | 
3550 | CCCN(CC1CCCO1)[C@H]1CCc2c(O)cccc2C1 (some centres unmarked) [Example 22] | 16200 | 1510 | 2.19 |  | 0.030 | 11 | 1620 |  |  |  | 
> 10000 | CCCN(CCC1CCCCO1)[C@H]1CCc2c(O)cccc2C1 (some centres unmarked) [Example 23] | 7410 | 110 | 0.437 |  | 0.010 | 68 | > 22900 |  |  |  | 
123 | CCCN(CCC1CCOC1)[C@H]1CCc2c(O)cccc2C1 (some centres unmarked) [Example 24] | 5620 | 263 | 0.776 |  | 0.020 | 21 | 158 |  |  |  | 
 | CCCN(CCC)C1CCc2c(O)cccc2C1 (centres unmarked) [Example 39, 5-hydroxy-2-(di-n-propyl)aminotetralin, reference compound] |  |  |  |  | 0.010 | 5 | 120 | 3800 | 790 | 2.14 | 257

SMILES | EC50 [6, 10] [nM] | Ki [1, 7] [nM] | Ki [2, 8] [nM] | EC50 [3, 9] [nM] | EC50 [4] [nM] | ED50 [5] [µmol/kg] | Selectivity Ratio (D1 K1/D2 K1) [2] | Specificity Ratio (a2 A50/D2 A50) [3] | Ki [1] [nM] | Ki [2] [nM] | EC50 [3] [nM] | EC50 [6] [nM]
CCCN(CC1CCOC1)[C@H]1CCc2c(O)cccc2C1.Cl (stereo partly drawn) [Example 21, (6S)-5,6,7,8-tetrahydro-6-[[(tetrahydro-3-furanyl)methyl]propylamino]-1-naphthalenol, hydrochloride] | 275 | 3630 | 151 | 0.977 |  | 0.009 | 24 | 282 |  |  |  | 
CCCN(CCCOC)[C@H]1CCc2c(O)cccc2C1 [Example 41, (S)-5,6,7,8-tetrahydro-6-[(3-methoxypropyl)propylamino]-l-naphthalenol, reference compound] | 234 | 11000 | 790 | 0.91 |  | 0.020 | 14 | 257 |  |  |  | 
